Measured values reported in ChEMBL document CHEMBL1123843, “Anticoagulant peptides: nature of the interaction of the C-terminal region of hirudin with a noncatalytic binding site on thrombin” (J Med Chem, 1987).
Square brackets hold non-standard residues; d marks the D form. Peptide text beside a SMILES is read from it. sY = N[C@@H](Cc1ccc(OS(=O)(=O)O)cc1)C(=O)O; Sar = CNCC(=O)O

Assays:
Prothrombin = Prothrombin (Bos taurus, UniProt P00735); experiment: Inhibition of plasma fibrin clot formation by thrombin in vitro.; type: functional, cell-free
Prothrombin (Bos taurus) = Prothrombin (Bos taurus) (UniProt P00735); experiment: Relative potency for fibrin clot inhibition compared to hirudin55-65.; type: functional; parameters: unit not given here

Which IC50 (Prothrombin) does the source give for CC[C@H](C)[C@H](NC(=O)[C@H](CCC(=O)O)NC(=O)[C@H](CCC(=O)O)NC(=O)[C@H](Cc1ccccc1)NC(=O)[C@H](CC(=O)O)NC(=O)CNC(=O)[C@H](CC(=O)O)NC(=O)[C@H](CC(N)=O)NC(=O)[C@H](Cc1cnc[nH]1)NC(=O)[C@H](CO)NC(=O)[C@H](CCC(N)=O)NC(=O)[C@@H]1CCCN1C(=O)[C@H](CCCCN)NC(=O)[C@@H]1CCCN1C(=O)[C@@H](NC(C)=O)[C@@H](C)O)C(=O)N1CCC[C@H]1C(=O)N[C@@H](CCC(=O)O)C(=O)N[C@@H](CCC(=O)O)C(=O)N[C@@H](Cc1ccc(OS(=O)(=O)O)cc1)C(=O)N[C@@H](CC(C)C)C(=O)N[C@@H](CCC(N)=O)C(=O)O here?
Its IC50 is 1.6 µM.

Which Relative potency (Prothrombin (Bos taurus)) does the source give for CC[C@H](C)[C@H](NC(=O)[C@H](CCC(=O)O)NC(=O)[C@H](CCC(=O)O)NC(=O)[C@H](Cc1ccccc1)NC(=O)[C@H](CC(=O)O)NC(=O)CN)C(=O)N[C@H](C)C(=O)N[C@@H](CCC(=O)O)C(=O)N[C@@H](CCC(=O)O)C(=O)N[C@@H](Cc1ccc(OS(=O)(=O)O)cc1)C(=O)N[C@@H](CC(C)C)C(=O)N[C@@H](CCC(N)=O)C(=O)O here?
The Relative potency was 26.

And the IC50 (Prothrombin)?
The IC50 was 27 µM.

Which Relative potency (Prothrombin (Bos taurus)) does the source give for CC[C@H](C)[C@H](NC(=O)[C@H](CCC(=O)O)NC(=O)[C@H](CCC(=O)O)NC(=O)[C@H](CCC(=O)O)NC(=O)[C@@H](N)CC(=O)O)C(=O)N1CCC[C@H]1C(=O)N[C@@H](CCC(=O)O)C(=O)N[C@@H](CCC(=O)O)C(=O)N[C@@H](Cc1ccc(OS(=O)(=O)O)cc1)C(=O)N[C@@H](CC(C)C)C(=O)N[C@@H](CCC(N)=O)C(=O)O (H-DEEEIPEE[sY]LQ-OH) here?
Its Relative potency is less than 2.

What about the IC50 (Prothrombin) of the same compound?
The IC50 was greater than 200 µM.

Which Relative potency (Prothrombin (Bos taurus)) does the source give for CC[C@H](C)[C@H](NC(=O)[C@H](CCC(=O)O)NC(=O)[C@H](C)NC(=O)[C@H](Cc1ccccc1)NC(=O)[C@@H](N)CC(=O)O)C(=O)N1CCC[C@H]1C(=O)N[C@@H](CCC(=O)O)C(=O)N[C@@H](CCC(=O)O)C(=O)N[C@@H](Cc1ccc(OS(=O)(=O)O)cc1)C(=O)N[C@@H](CC(C)C)C(=O)N[C@@H](CCC(N)=O)C(=O)O (H-DFAEIPEE[sY]LQ-OH) here?
The Relative potency was less than 3.

And the IC50 (Prothrombin)?
Its IC50 is greater than 200 µM.

Which Relative potency (Prothrombin (Bos taurus)) does the source give for CC[C@H](C)[C@H](NC(=O)[C@H](C)NC(=O)[C@H](CCC(=O)O)NC(=O)[C@H](Cc1ccccc1)NC(=O)[C@@H](N)CC(=O)O)C(=O)N1CCC[C@H]1C(=O)N[C@@H](CCC(=O)O)C(=O)N[C@@H](CCC(=O)O)C(=O)N[C@@H](Cc1ccc(OS(=O)(=O)O)cc1)C(=O)N[C@@H](CC(C)C)C(=O)N[C@@H](CCC(N)=O)C(=O)O (H-DFEAIPEE[sY]LQ-OH) here?
The Relative potency was 53.

What about the IC50 (Prothrombin) of the same compound?
Its IC50 is 13.3 µM.

Which Relative potency (Prothrombin (Bos taurus)) does the source give for CC(C)C[C@H](NC(=O)[C@H](Cc1ccc(OS(=O)(=O)O)cc1)NC(=O)[C@H](CCC(=O)O)NC(=O)[C@H](CCC(=O)O)NC(=O)[C@@H]1CCCN1C(=O)[C@H](C)NC(=O)[C@H](CCC(=O)O)NC(=O)[C@H](CCC(=O)O)NC(=O)[C@H](Cc1ccccc1)NC(=O)[C@@H](N)CC(=O)O)C(=O)N[C@@H](CCC(N)=O)C(=O)O (H-DFEEAPEE[sY]LQ-OH) here?
Its Relative potency is less than 3.

And the IC50 (Prothrombin)?
Its IC50 is greater than 200 µM.

With CC[C@H](C)[C@H](NC(=O)[C@H](CCC(=O)O)NC(=O)[C@H](CCC(=O)O)NC(=O)[C@H](Cc1ccccc1)NC(=O)[C@@H](N)CC(=O)O)C(=O)N[C@@H](C)C(=O)N[C@@H](CCC(=O)O)C(=O)N[C@@H](CCC(=O)O)C(=O)N[C@@H](Cc1ccc(OS(=O)(=O)O)cc1)C(=O)N[C@@H](CC(C)C)C(=O)N[C@@H](CCC(N)=O)C(=O)O (H-DFEEIAEE[sY]LQ-OH) as the compound, how does the Relative potency (Prothrombin (Bos taurus)) read?
Its Relative potency is less than 3.

What about the IC50 (Prothrombin) of the same compound?
The IC50 was greater than 200 µM.

With CC[C@H](C)[C@H](NC(=O)[C@H](CCC(=O)O)NC(=O)[C@H](CCC(=O)O)NC(=O)[C@H](Cc1ccccc1)NC(=O)[C@@H](N)CC(=O)O)C(=O)N1CCC[C@H]1C(=O)N[C@@H](C)C(=O)N[C@@H](CCC(=O)O)C(=O)N[C@@H](Cc1ccc(OS(=O)(=O)O)cc1)C(=O)N[C@@H](CC(C)C)C(=O)N[C@@H](CCC(N)=O)C(=O)O (H-DFEEIPAE[sY]LQ-OH) as the compound, how does the Relative potency (Prothrombin (Bos taurus)) read?
The Relative potency was 38.

And the IC50 (Prothrombin)?
The IC50 was 18.5 µM.

What does the source list for CC[C@H](C)[C@H](NC(=O)[C@H](CCC(=O)O)NC(=O)[C@H](CCC(=O)O)NC(=O)[C@H](Cc1ccccc1)NC(=O)[C@@H](N)CC(=O)O)C(=O)N1CCC[C@H]1C(=O)N[C@@H](CCC(=O)O)C(=O)N[C@@H](C)C(=O)N[C@@H](Cc1ccc(OS(=O)(=O)O)cc1)C(=O)N[C@@H](CC(C)C)C(=O)N[C@@H](CCC(N)=O)C(=O)O (H-DFEEIPEA[sY]LQ-OH)?
Relative potency (Prothrombin (Bos taurus)): 17; IC50 (Prothrombin): 42.8 µM

CC[C@H](C)[C@H](NC(=O)[C@H](CCC(=O)O)NC(=O)[C@H](CCC(=O)O)NC(=O)[C@H](Cc1ccccc1)NC(=O)[C@@H](N)CC(=O)O)C(=O)N1CCC[C@H]1C(=O)N[C@@H](CCC(=O)O)C(=O)N[C@@H](CCC(=O)O)C(=O)N[C@@H](C)C(=O)N[C@@H](CC(C)C)C(=O)N[C@@H](CCC(N)=O)C(=O)O (H-DFEEIPEEALQ-OH) was tested. Which Relative potency (Prothrombin (Bos taurus)) did it give?
Its Relative potency is 52.

What about the IC50 (Prothrombin) of the same compound?
Its IC50 is 13.6 µM.

With CC[C@H](C)[C@H](NC(=O)[C@H](CCC(=O)O)NC(=O)[C@H](CCC(=O)O)NC(=O)[C@H](Cc1ccccc1)NC(=O)[C@@H](N)CC(=O)O)C(=O)N1CCC[C@H]1C(=O)N[C@@H](CCC(=O)O)C(=O)N[C@@H](CCC(=O)O)C(=O)N[C@@H](CCC(=O)O)C(=O)N[C@@H](CC(C)C)C(=O)N[C@@H](C)C(=O)O (H-DFEEIPEEELA-OH) as the compound, how does the Relative potency (Prothrombin (Bos taurus)) read?
The Relative potency was 12.

And the IC50 (Prothrombin)?
Its IC50 is 59.1 µM.

Which results are given for CC[C@H](C)[C@H](NC(=O)[C@H](CCC(=O)O)NC(=O)[C@H](CCC(=O)O)NC(=O)[C@H](Cc1ccccc1)NC(=O)[C@@H](N)CC(=O)O)C(=O)N1CCC[C@H]1C(=O)N[C@@H](CCC(=O)O)C(=O)N[C@@H](CCC(=O)O)C(=O)N[C@@H](Cc1ccc(OS(=O)(=O)O)cc1)C(=O)N[C@@H](C)C(=O)N[C@@H](CCC(N)=O)C(=O)O (H-DFEEIPEE[sY]AQ-OH)?
Relative potency (Prothrombin (Bos taurus)): < 3; IC50 (Prothrombin): > 200 µM

For CC[C@H](C)[C@H](NC(=O)[C@H](CCC(=O)O)NC(=O)[C@H](CCC(=O)O)NC(=O)[C@H](CC(C)C)NC(=O)[C@@H](N)CC(=O)O)C(=O)N1CCC[C@H]1C(=O)N[C@@H](CCC(=O)O)C(=O)N[C@@H](CCC(=O)O)C(=O)N[C@@H](Cc1ccc(OS(=O)(=O)O)cc1)C(=O)N[C@@H](CC(C)C)C(=O)N[C@@H](CCC(N)=O)C(=O)O (H-DLEEIPEE[sY]LQ-OH), which Relative potency (Prothrombin (Bos taurus)) is on record?
The Relative potency was less than 2.

What about the IC50 (Prothrombin) of the same compound?
The IC50 was greater than 200 µM.

With CC[C@H](C)[C@H](NC(=O)[C@H](CCC(=O)O)NC(=O)[C@H](CCC(=O)O)NC(=O)[C@H](Cc1ccccc1)NC(=O)[C@H](CC(=O)O)NC(=O)CN)C(=O)N(C)CC(=O)N[C@@H](CCC(=O)O)C(=O)N[C@@H](CCC(=O)O)C(=O)N[C@@H](Cc1ccc(OS(=O)(=O)O)cc1)C(=O)N[C@@H](CC(C)C)C(=O)N[C@@H](CCC(N)=O)C(=O)O (H-GDFEEI[Sar]EE[sY]LQ-OH) as the compound, how does the Relative potency (Prothrombin (Bos taurus)) read?
The Relative potency was 41.

And the IC50 (Prothrombin)?
The IC50 was 17.3 µM.

CC(C)C[C@H](NC(=O)[C@H](Cc1ccc(OS(=O)(=O)O)cc1)NC(=O)[C@H](CCC(=O)O)NC(=O)[C@H](CCC(=O)O)NC(=O)[C@@H]1CCCN1C(=O)[C@H](CC(C)C)NC(=O)[C@H](CCC(=O)O)NC(=O)[C@H](CCC(=O)O)NC(=O)[C@H](Cc1ccccc1)NC(=O)[C@H](CC(=O)O)NC(=O)CN)C(=O)N[C@@H](CCC(N)=O)C(=O)O (H-GDFEELPEE[sY]LQ-OH) was tested. Which Relative potency (Prothrombin (Bos taurus)) did it give?
Its Relative potency is 86.

And the IC50 (Prothrombin)?
The IC50 was 8.3 µM.

CC[C@H](C)[C@H](NC(=O)[C@H](CCC(=O)O)NC(=O)[C@H](CCC(=O)O)NC(=O)[C@H](Cc1ccc(O)cc1)NC(=O)[C@H](CC(=O)O)NC(=O)CN)C(=O)N1CCC[C@H]1C(=O)N[C@@H](CCC(=O)O)C(=O)N[C@@H](CCC(=O)O)C(=O)N[C@@H](Cc1ccc(OS(=O)(=O)O)cc1)C(=O)N[C@@H](CC(C)C)C(=O)N[C@@H](CCC(N)=O)C(=O)O (H-GDYEEIPEE[sY]LQ-OH) was tested. Which Relative potency (Prothrombin (Bos taurus)) did it give?
Its Relative potency is 215.

What about the IC50 (Prothrombin) of the same compound?
The IC50 was 3.3 µM.

With CC(C)CC(NC(=O)[C@H](Cc1ccc(OS(=O)(=O)O)cc1)NC(=O)[C@H](CCC(=O)O)NC(=O)[C@H](CCC(=O)O)NC(=O)[C@@H]1CCCN1C(=O)C(CC(C)C)NC(=O)[C@H](CCC(=O)O)NC(=O)[C@H](CCC(=O)O)NC(=O)[C@H](Cc1ccccc1)NC(=O)[C@@H](N)CC(=O)O)C(=O)N[C@@H](C)C(=O)O (stereo in doubt) as the compound, how does the Relative potency (Prothrombin (Bos taurus)) read?
The Relative potency was less than 3.

And the IC50 (Prothrombin)?
The IC50 was greater than 200 µM.
